One test deals with PBMCs. Briefly: T cell recall assay (qPCR and intracellular staining). It counts as cell-based, human. As for the experimental part: Total PBMCs were plated into 96-well round-bottom plates at 0.5×10^6 cells/well and were stimulated with anti-CD3/CD28 Dynabeads (Gibco Life Technologies) at a bead/cell ratio of 0.2:1 in the presence of compound 005 (10 μM) or vehicle (DMSO) for 6 hours to induce polyclonal primary responses. To induce recall responses, cells were stimulated with beads for two days, allowed to rest for eight days in medium supplemented with IL-2 (10 U/mL) and re-stimulated with anti-CD3/CD28 beads for the last 6 hours in the presence of compound 005 ([…]) or vehicle. Expression of Th1-, Th2-, Th17-, and Treg-associated cytokines and transcription factors was assessed by qPCR. For intracellular staining, cells were re-stimulated for 10 hours with anti-CD3/CD28 beads, and Brefeldin A (10 μg/mL, Sigma) was added to the medium 4 hours after the start of re-stimulation. Dead cells were excluded using the LIVE/DEAD® Fixable Aqua Dead Cell Stain Kit (Life Technologies). Subsequently, cells were surface-stained with CD3-BUV395, CD4-BUV737, CD8-Violet650 (all three from BDHorizon), and CD161-PE-Cy7 (from Biolegend) at 4° C. for 30 min, followed by incubation with Fixation/Permeabilization working solution (eBioscience), washed with Permeabilization Buffer and stained with IL-17A-PE and IFNγ-BV711 (both from BD Biosciences). Cells were resuspended in ice-cold FACS buffer (0.5% BSA, 2 mM EDTA and 50 U/mL penicillin/streptomycin in PBS). Flow cytometry data were collected on BD FACSCelesta™ and analyzed using FlowJo™ cell analysis software (FlowJo, LLC).
Total RNA was extracted from PBMCs using the RNeasy Micro Kit (Qiagen) according to the manufacturer's protocol. RNA was processed for cDNA synthesis (Fermentas) and analyzed by qPCR with TaqMan gene expression assays for IFNG (Hs00989291_m1), IL-2 (Hs00174114_m1), TNF (Hs00174128_m1), TBX21 (Hs00203436_m1), IL-4 (Hs00174122_m1), GATA3 (Hs00231122_m1), IL-17A (Hs00174383_m1), IL-17F (Hs00369400_m1), IL-21 (Hs00222327_m1), IL-22 (Hs01574154_m1), RORC (Hs01076122_m1), IL-10 (Hs00961622_m1), FOXP3 (Hs01085834_m1), POU2AF1 (Hs01573371_m1) (Thermofisher) using Real-Time PCR QuantStudio3 PCR System (Applied Biosystems). Expressions of all genes were normalized to the expression of GAPDH (4310884E) as housekeeping gene and presented as fold change relative to the reference sample.
On the technique in general: Quantitative PCR measures a nucleic acid by following its amplification.

The target of test [1] is T1, POU domain of OCT1 (POU1) (Homo sapiens, UniProt P14859).
T1 construct: 6xHis (pET28 N-terminal histidine tag) (N); made in house; host or cells: E. coli BL21
T1 sequence (P14859 280-438): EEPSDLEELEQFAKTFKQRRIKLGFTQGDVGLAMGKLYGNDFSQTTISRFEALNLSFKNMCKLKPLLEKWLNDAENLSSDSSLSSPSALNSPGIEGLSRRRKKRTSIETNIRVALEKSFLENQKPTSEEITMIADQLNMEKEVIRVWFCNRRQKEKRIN
As to the kind of experiment: Kd measurement (fluorescence emission spectra, Hill's coordinates). The following applies: 298.15 K. It counts as binding.

Here are results for 1 compound from patent US20250177412A1, “SMALL-MOLECULE INHIBITORS TARGETING THE BOB1/OCT1 INTERFACE” (NANTES UNIVERSITE, priority 2022, published 2025).

Each structure is given as a SMILES string.

In general, Kd refers to a measure of binding affinity in units of concentration. Low readings indicate higher affinity, high ones lower affinity. For `Cc1ccc(NC(=O)C2CN(c3nc(NCCCc4ccc(F)cc4)nc(NCCC(=O)O)n3)c3ccccc3O2)cc1Cl` (stereo not drawn) [compound 005, 3-((4-(2-((3-chloro-4-methylphenyl)carbamoyl)-2,3-dihydro-4H-benzo[b][1,4]oxazin-4-yl)-6-((3-(4-fluorophenyl)propyl)amino)-1,3,5-triazin-2-yl)amino)propanoic acid], in the test with PBMCs (initial activation, 6 hours-stimulated cells, 10 μM, data not shown), the TNF expression entry is “significant decrease”. In addition, in the test on PBMCs (re-stimulated (recall) cells), the “IL-17A mRNA, median percentage decrease” value came out at 43% and the “IL-17F mRNA, median percentage decrease” value was 27%. In the test on PBMCs (re-stimulated cells), the “expression of IL-17A by CD4+ T cells (protein, intracellular staining)” value is given as “suppressed”. The dissociation constant Kd in test [1] (POU1 3 μM) was found to be 1 nM. Further, in test [1] (calculated from Kb), the “ΔG (change of Gibb's energy) of binding” value is reported as “negative value”.
